According to ChEMBL document CHEMBL1126239, “Quinazoline antifolate thymidylate synthase inhibitors: difluoro-substituted benzene ring analogues” (J Med Chem, 1992):

Legend:
[1] = system: L1210; test: The compound was tested in vitro for the inhibition of L1210 cell growth in culture; type: functional, cell-based; conditions: Mus musculus
[2] = system: L1210; test: The compound was tested in vitro for the inhibition of L1210 cell growth in the presence of thymidine; type: functional, Mus musculus; set-up: concentration or dose not given beside the values
[3] = target: Thymidylate synthase (Mus musculus, UniProt P07607); test: Inhibition of thymidylate synthase from L1210 cells; type: cell-based
Thymidylate synthase, sequence (P07607 whole entry): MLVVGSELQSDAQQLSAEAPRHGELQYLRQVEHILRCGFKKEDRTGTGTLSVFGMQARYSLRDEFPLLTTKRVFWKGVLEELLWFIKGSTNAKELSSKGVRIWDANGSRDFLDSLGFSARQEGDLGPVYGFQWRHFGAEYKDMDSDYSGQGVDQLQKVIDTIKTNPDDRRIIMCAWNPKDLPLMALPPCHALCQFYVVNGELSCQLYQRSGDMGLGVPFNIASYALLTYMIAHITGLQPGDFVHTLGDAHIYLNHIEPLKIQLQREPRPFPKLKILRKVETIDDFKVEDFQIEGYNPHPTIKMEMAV

Row | IC50 [1] | IC50 [3] | Compound | Control [2]
1 | 75 nM | 1100 nM | Cc1nc(O)c2cc(CN(C)c3cc(F)c(C(=O)N[C@@H](CCC(=O)O)C(=O)O)cc3F)ccc2n1 | 94%
2 | 280 nM | 1700 nM | C#CCN(Cc1ccc2nc(C)nc(O)c2c1)c1ccc(C(=O)N[C@@H](CCC(=O)O)C(=O)O)c(F)c1F | 94%
3 | 50 nM | 950 nM | Cc1nc(O)c2cc(CN(C)c3cc(F)c(C(=O)N[C@@H](CCC(=O)O)C(=O)O)c(F)c3)ccc2n1 | 90%
4 | 27 nM | 600 nM | C#CCN(Cc1ccc2nc(C)nc(O)c2c1)c1cc(F)c(C(=O)N[C@@H](CCC(=O)O)C(=O)O)cc1F | 95%
5 | 62 nM | 80 nM | C#CCN(Cc1ccc2nc(C)nc(O)c2c1)c1cc(F)c(C(=O)N[C@@H](CCC(=O)O)C(=O)O)c(F)c1 | 93%
6 | 140 nM | 1000 nM | Cc1nc(O)c2cc(CN(C)c3ccc(C(=O)N[C@@H](CCC(=O)O)C(=O)O)c(F)c3F)ccc2n1 | –
